From patent EP0783507B1, “COMPOUNDS USEFUL AS ANTIPROLIFERATIVE AGENTS AND GARFT INHIBITORS” (AGOURON PHARMACEUTICALS, INC., priority 1994, dated 1996)
Where two headings read alike, the source gives them in different places.

Key:
CCRF-CEM = assay: In vitro cell growth inhibition (MTT, modified Mosmann method), CCRF-CEM; assay type: cell-based; conditions: Homo sapiens, continuous (72-hour) exposure per table title, Table 2 gives 5 days incubation, mean IC50, read-out: IC50 Cell CultureCCRF-CEM
Description: (§1) All cultures were maintained at 37°C, 5% air-CO2 in a humidified incubator.
(§2) Stock solutions of the inhibitors were prepared in 10 mM sodium bicarbonate in water and stored in 1 ml aliquots at - 20°C for cell culture experiments. Cell growth inhibition was measured by a modification of the method of Mosmann, J. Immunol. Methods 65 (1983), 55-63.
(§3) Mid-log phase cells of each cell line were diluted to 18,500 cells/ml in fresh RPMI growth medium (Mediatech, Washington, DC) supplemented with dialyzed fetal calf serum (Hyclone Laboratories Inc., Logan, UT) and then aliquotted into columns 2 through 12 of 96-well microtiter plates. Column 1 was filled with the same volume ([…]) of fresh medium, without cells, for use as a blank. The plates were then placed in a 37°C, 5% air-CO2 incubator. After 1 to 4 hours, plates were removed from the incubator followed by addition of Compound 1 at 10 x final concentration, […] in binary dilutions, to columns 12 to 4. […] The extent of metabolized MTT was measured spectrophotometrically at 540 nm on a Molecular Devices Vmax kinetic microplate reader. The concentration of drug required to reduce cell growth by 50% as measured by MTT metabolism was determined by interpolation between the O.D. (minus blank) immediately above and below 50% of control O.D. (minus blank).

[1] = target: catalytic domain of the human GARFT (Homo sapiens, UniProt P22102); assay: biochemical
Description: The GAR-transformylase (GARFT) assay method of Young et al., Biochemistry 23 (1984), 3979-3986, was modified and used as described below. Reactions mixtures contained the catalytic domain of the human GARFT, 0-250 nM of Compound 1, 20 µM glycinamide ribonucleotide (GAR), 10 or 20 µM N^10-formyl-5,8-dideazafolate (FDDF), 50 mM HEPES-KOH, pH 7.5, and 50 mM KCl. The reaction was initiated with the addition of enzyme to a final concentration of 11 nM, followed by monitoring of the increase in absorbance at 294 nm at 20°C (e294 = 18.9 mM^-1 cm^-1).
The GARFT inhibition constant (Ki) was determined from the dependence of the steady-state catalytic rate on inhibitor and substrate concentration. […] The Michaelis constant for FDDF, Km, was determined independently by the dependence of the catalytic rate on FDDF concentration. Data for both the Km and Ki determinations were fitted by nonlinear methods to the Michaelis equation, or the Michaelis equation for competitive inhibition, as appropriate. Data resulting from tight-binding inhibition was analyzed, and Ki determined, by fitting the data to the tight-binding equation of Morrison, Biochem Biophys Acta 185 (1969), 269-286, by nonlinear methods.

[2] = system: C3H/BA mammary adenocarcinoma; assay type: in vivo; conditions: tumor mass vs control on day 14
Description: (§4) On day zero, 2 mm^2 trocar fragments of C3H/BA mammary adenocarcinoma were implanted subcutaneously in the axillary region into groups of six C3H/He female mice. Starting on day 1, the test compound was administered intraperitoneally in 40% Encapsin given once daily for nine days. Control animals received identical treatment without test compound. The percentage of inhibition was calculated by comparing the mass of the control tumors (receiving diluent only) on day 14 to those of animals receiving test compound.

L1210 = assay: In vitro cell growth inhibition (MTT, modified Mosmann method), L1210; assay type: cell-based; conditions: Mus musculus, continuous (72-hour) exposure, mean IC50, read-out: IC50 Cell Culture L1210
Description: as §1, §2, §3

6C3HED lymphosarcoma = assay type: in vivo; conditions: tumor mass vs control on day 11
Description: as §4, with “6C3HED lymphosarcoma” for “C3H/BA mammary adenocarcinoma”, “percentage” for “percentage of”, “inhibition given in Table 4 below” for “inhibition”, “11” for “14”

Sequence of catalytic domain of the human GARFT (P22102 810-1010 limits assumed): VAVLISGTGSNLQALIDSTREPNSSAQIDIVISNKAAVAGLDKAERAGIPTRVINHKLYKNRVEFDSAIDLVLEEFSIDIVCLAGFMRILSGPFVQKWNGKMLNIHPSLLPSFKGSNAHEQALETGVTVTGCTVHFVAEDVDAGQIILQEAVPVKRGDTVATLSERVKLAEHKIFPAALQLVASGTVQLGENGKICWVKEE

Question: With `Nc1nc2c(c(=O)[nH]1)SC(CCc1ccc(C(=O)N[C@@H](CCC(=O)O)C(=O)O)s1)CN2` (stereo partly drawn) [Compound 1, 4-[2-(2-Amino-4-oxo-4,6,7,8-tetrahydro-3H-pyrimido[5,4-6][1,4]thiazin-6-yl)-ethyl]-2,5-thienoylamino-L-glutamic acid] as the molecule, how does the IC50 (CCRF-CEM) read?
Answer: Its IC50 is 4.3 nM.

Question: What about the Ki [1] of the same molecule?
Answer: The Ki was 4.5 nM.

Question: And the “% Inhibition” value ([2]; 5 mg/kg intraperitoneally in 40% Encapsin once daily for nine days)?
Answer: Its value is 16%.

Question: And the “% Inhibition” value ([2]; 10 mg/kg intraperitoneally in 40% Encapsin once daily for nine days)?
Answer: Its value is 84%.

Question: What about the “% Inhibition” value ([2]; 20 mg/kg intraperitoneally in 40% Encapsin once daily for nine days) of the same molecule?
Answer: The value was 100%.

Question: What about the IC50 (L1210) of the same molecule?
Answer: The IC50 was 16 nM.

Question: And the “% Inhibition” value (6C3HED lymphosarcoma; 12.5 mg/kg intraperitoneally in 40% Encapsin once daily for nine days)?
Answer: The value was 100%.

Question: And the “% Inhibition” value (6C3HED lymphosarcoma; 25 mg/kg intraperitoneally in 40% Encapsin once daily for nine days)?
Answer: Its value is 100%.

Question: What about the “% Inhibition” value (6C3HED lymphosarcoma; 50 mg/kg intraperitoneally in 40% Encapsin once daily for nine days) of the same molecule?
Answer: The value was “toxic”.
